Test results taken from patent US20170321285A1, “NLRC5 AS A BIOMARKER FOR CANCER PATIENTS AND A TARGET FOR CANCER THERAPY” (THE TEXAS A&M UNIVERSITY SYSTEM, priority 2016, published 2017).

Experiments:
[1] = system: cancer cell lines; conditions: 3 μM 5-azacytidine, various cancer cell lines, qPCR (FIG. 2A)
Experimental: Indicated cancer cell lines were treated with 3 μM of 5-azacytidine (5-Aza) for DNA demethylation for the indicated period and the expression of nlrc5 and hla-b were quantified by qPCR. […] Cell lines were cultured in IMDM. All media were supplemented with 10% heat inactivated fetal bovine serum, 50 U/mL penicillin, 50 U/mL streptomycin, 4 mM L-glutamine and 10 mM HEPES. Cell lines were treated with 5-Azacytidine (3 μM) for DNA demethylation. RNA isolation and quantitative PCR were performed.

[2] = system: hla-b promoter; assay: hla-b promoter dual-luciferase reporter assay with nlrc5 mutant plasmids in HEK293T cells; format: cell-based, human; conditions: 100 ng mutant plasmid with HLA-B250 luciferase reporter, 48 h post-transfection (FIG. 3H)
From the text: FIGS. 3A-3J. Copy number loss and somatic mutations in nlrc5 are associated with reduced MHC class I gene expressions. FIG. 3A. Percentage of cancer patients who carry nlrc5 copy number (CN) loss among 20 TCGA tumor types. Based on GISTIC values, samples were classified into nlrc5 diploid group and CN loss group: GISTIC 0, diploid; −1 and −2, CN loss. FIG. 3B. Percentage of cancer patients who carry copy number (CN) loss of various MHC class I-related genes for 10 TCGA tumor types for which data are available (bladder, breast, colon, head/neck, lung adeno, lung squamous, ovarian, prostate, rectal and uterine cancer, top) and ovarian cancer (bottom). Statistical significance was determined by chi-square test. *: p<0.01, **: p<0.0001. FIG. 3C. Heatmap showing gene expression of nlrc5 and hla-b in nlrc5 diploid group (n=2028) or CN loss group (n=890) for 17 TCGA tumor types in which the nlrc5 promoter is not methylated. FIG. 3D. The box plots showing nlrc5 and MHC class I-related gene expression in the nlrc5 diploid group or CN loss group in breast cancer patients. FIG. 3E. Pie chart representing the percentage distribution of different types of mutations in nlrc5 in various cancer patients (n=7752). FIG. 3F. Mutation rate in 20 TCGA tumor types. FIG. 3G. Representation of nlrc5 indicating 13 mutations found in at least 2 different cancer patients. FIG. 3H. HEK293T cells were co-transfected with either empty control vector or the respective nlrc5 mutant plasmid with hla-b reporter plasmid and hla-b promoter activity was assessed by the dual-luciferase assay and normalized against Renilla […] activity. Data are representative of two independent experiments performed in duplicate and is plotted as fold induction with respect to the control vector. Error bar: ±sd. FIG. 3I. […] FIG. 3J. Box plots for the expression level of MHC class I-related genes normalized by the expression level of nlrc5 in 20 TCGA tumor types that are either nlrc5 wild-type or nlrc5 mutant. FIGS. 3D-3J. The horizontal line corresponds to the median, the box to the 25th-75th percentile and the lines to the confidence interval (5th-95th percentile).
The expression vector for human gfp-nlrc5 in pcDNA3.1 was previously described. The reporter gene construct used for MHC class I promoter activity (HLA-B250) was also previously described. Selected nlrc5 mutants were constructed using pcDNA3.1-gfp-nlrc5 by site-directed mutagenesis using the primers listed in Table 3. All the plasmids were confirmed by sequencing (Gene Technologies Laboratory).
HEK293T cells were cultured in DMEM supplemented with 10% FBS and penicillin/streptomycin (Life Technologies) at 37° C. with 5% CO2. Cells were transiently transfected using polyethylenimine at a DNA/polyethylenimine ratio of 1:3 in serum-free media. For luciferase assay, HEK293T cells were split at a density of 5×10^4 cells/well into 24-well plates 1 day prior to transfection. Cells were co-transfected using 100 ng of gfp-nlrc5 or 100 ng of the specified nlrc5 mutant plasmids along with 100 ng of HLA-B250 luciferase reporter construct. 20 ng promoterless Renilla luciferase vector (pRL-null; Promega) were included for normalization of transfection efficiency. Cells were harvested 48 h post-transfection, and cell lysates were analyzed using the Dual-Luciferase Reporter Assay System (Promega) according to the manufacturer's instructions.

Row | Compound | expression of hla-b [1] | expression of nlrc5 [1] | activity of the NLRC5 protein as compared to the wild-type NLRC5 protein (induction of hla-b promoter activity) [2]
1 | Nc1ncn([C@@H]2O[C@H](CO)[C@@H](O)[C@H]2O)c(=O)n1 [5-Azacitidine, 4-amino-1-β-D-ribofuranosyl-1,3,5-triazin-2(1H)-one] | upregulation | upregulation | 
2 | A737D: NLRC5 protein mutant found in cancer patients, expressed from gfp-nlrc5 vector made by site-directed mutagenesis |  |  | reduces the activity
3 | A1512T: NLRC5 protein mutant found in cancer patients, expressed from gfp-nlrc5 vector made by site-directed mutagenesis |  |  | does not reduce or increases the activity
4 | D884N: NLRC5 protein mutant found in cancer patients, expressed from gfp-nlrc5 vector made by site-directed mutagenesis |  |  | does not reduce or increases the activity
5 | L181P: NLRC5 protein mutant found in cancer patients, expressed from gfp-nlrc5 vector made by site-directed mutagenesis |  |  | reduces the activity
6 | Q1847*: NLRC5 nonsense mutant found in cancer patients, expressed from gfp-nlrc5 vector made by site-directed mutagenesis |  |  | reduces the activity
7 | R262C: NLRC5 protein mutant found in cancer patients, expressed from gfp-nlrc5 vector made by site-directed mutagenesis |  |  | reduces the activity
8 | R386W: NLRC5 protein mutant found in cancer patients, expressed from gfp-nlrc5 vector made by site-directed mutagenesis |  |  | does not reduce or increases the activity
9 | R550W: NLRC5 protein mutant found in cancer patients, expressed from gfp-nlrc5 vector made by site-directed mutagenesis |  |  | reduces the activity
10 | R574H: NLRC5 protein mutant found in cancer patients, expressed from gfp-nlrc5 vector made by site-directed mutagenesis |  |  | does not reduce or increases the activity
11 | R1830C: NLRC5 protein mutant found in cancer patients, expressed from gfp-nlrc5 vector made by site-directed mutagenesis |  |  | reduces the activity
12 | S496F: NLRC5 protein mutant found in cancer patients, expressed from gfp-nlrc5 vector made by site-directed mutagenesis |  |  | does not reduce or increases the activity
13 | T1173M: NLRC5 protein mutant found in cancer patients, expressed from gfp-nlrc5 vector made by site-directed mutagenesis |  |  | does not reduce or increases the activity
